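Test compounds were applied to cells in 96-well plates for 48 hours at 5 doses. GI50 marks 50% less growth.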 The source made the active and inactive calls. No stated cut-off is given here; in the data, active = GI50 up to about 1.1 µM and inactive = higher.
How the values were obtained:
Experiment in all cases: NCI tumour cell line growth inhibition, 48 h
KM-20L2 = tested on: KM-20L2
HOP-18 = tested on: HOP-18
DLD-1 = tested on: DLD-1
M19-MEL = tested on: M19-MEL
LXFL 529 = tested on: LXFL 529
SNB-78 = tested on: SNB-78
DMS-273 = tested on: DMS-273
RXF 631 = tested on: RXF 631
XF498 = tested on: XF498

Measured: GI50

CCOc1ccc2c(ccc(/C=C/c3cc(C)c4cccnc4c3O)[n+]2C)c1
active: KM-20L2 0.527 µM | LXFL 529 0.384 µM
inactive: HOP-18 2.8 µM | DLD-1 1.28 µM | M19-MEL 2.99 µM

O=C(CSc1nnc(-c2ccc(/N=C\c3ccc(Cl)cc3)cc2)o1)Nc1cccc([N+](=O)[O-])c1
inactive: KM-20L2 > 100 µM | HOP-18 > 100 µM | SNB-78 > 100 µM | M19-MEL > 100 µM | LXFL 529 > 100 µM | DMS-273 > 100 µM

Nc1c(C(=O)Nc2ccccc2O)[n+]([O-])c2ccccc2[n+]1[O-]
inactive: KM-20L2 > 100 µM | HOP-18 > 100 µM | SNB-78 > 100 µM | DLD-1 > 100 µM | M19-MEL 14.2 µM | LXFL 529 > 100 µM | RXF 631 50.6 µM | DMS-273 32.6 µM

Cc1cc(=O)oc2cc(OCc3nc4ccccc4c(=O)[nH]3)ccc12
inactive: KM-20L2 > 100 µM | HOP-18 > 100 µM | DLD-1 > 100 µM | M19-MEL > 100 µM | LXFL 529 > 100 µM | XF498 > 100 µM | DMS-273 > 100 µM

CCC12C[N+]3([O-])CCc4c([nH]c5ccccc45)C(C(=O)OC)(c4cc5c(cc4OC)N(C)C4C(O)(C(=O)OC)C(OC(C)=O)C6(CC)C=CCN7CCC54C76)CC(C3)C1O2 (stereo unspecified)
inactive: HOP-18 16 µM
active: KM-20L2 0.256 µM | SNB-78 0.506 µM | DLD-1 0.883 µM | M19-MEL 0.617 µM | LXFL 529 0.656 µM | XF498 0.407 µM | DMS-273 0.237 µM

CC(CCC=O)CCOCc1ccccc1 (stereo unspecified)
inactive: KM-20L2 > 100 µM | HOP-18 > 100 µM | SNB-78 > 100 µM | DLD-1 > 100 µM | M19-MEL > 73.8 µM | LXFL 529 > 100 µM | XF498 > 100 µM | DMS-273 > 95.9 µM

O=C1C(=O)N(c2nccs2)C(=O)C(=O)C1c1nc2ccccc2s1
inactive: KM-20L2 > 100 µM | HOP-18 9.23 µM | SNB-78 > 100 µM | DLD-1 > 100 µM | M19-MEL > 100 µM | LXFL 529 94 µM | XF498 > 100 µM | DMS-273 > 100 µM

O=C(OCc1ccccc1)n1cccc1
inactive: KM-20L2 > 100 µM | HOP-18 > 100 µM | SNB-78 > 100 µM | DLD-1 > 100 µM | M19-MEL > 100 µM | LXFL 529 > 100 µM | RXF 631 > 100 µM | XF498 78.2 µM | DMS-273 > 100 µM

CCc1c(C#N)c(=O)[nH]c(=O)n1CCN1CCN(C(=O)NCCCCCCNC(=O)N2CCN(CCn3c(CC)c(C#N)c(=O)[nH]c3=O)CC2)CC1
inactive: KM-20L2 > 100 µM | HOP-18 > 100 µM | SNB-78 > 100 µM | DLD-1 > 100 µM | M19-MEL > 100 µM | LXFL 529 > 100 µM | RXF 631 > 100 µM | XF498 > 100 µM | DMS-273 > 100 µM

COc1ccccc1-c1cc(=O)c2cc(C)c(C)c(C(=O)O)c2o1
inactive: KM-20L2 > 100 µM | SNB-78 > 100 µM | DLD-1 > 100 µM | M19-MEL > 100 µM | LXFL 529 > 100 µM | XF498 > 100 µM | DMS-273 > 100 µM

O=C1N(c2ccc(Cl)cc2)C(=O)C2(SC=NN2Cc2ccccc2)N1c1ccc(Cl)cc1 (stereo unspecified)
inactive: KM-20L2 > 100 µM | HOP-18 > 100 µM | SNB-78 > 100 µM | DLD-1 > 100 µM | M19-MEL > 100 µM | LXFL 529 > 100 µM | RXF 631 > 100 µM | XF498 28.6 µM

CC1(Cc2ccccc2)NC(=S)NC1=O (stereo unspecified)
inactive: KM-20L2 > 100 µM | SNB-78 > 100 µM | DLD-1 > 100 µM | M19-MEL > 100 µM | LXFL 529 > 100 µM | RXF 631 > 100 µM | DMS-273 > 100 µM
active: HOP-18 0.143 µM

CN(C)C(=S)Nc1nnc(NC23CC4CC(CC(C4)C2)C3)s1.[O-][Cl+3]([O-])([O-])O
inactive: KM-20L2 11.1 µM | SNB-78 39.2 µM | M19-MEL 19.6 µM | DMS-273 20.6 µM

C/C(=N\NC(=S)NC(CCC(=O)O)C(=O)O)c1ccccn1 (stereo unspecified)
inactive: KM-20L2 > 100 µM | HOP-18 > 100 µM | SNB-78 > 100 µM | DLD-1 > 100 µM | M19-MEL > 100 µM | LXFL 529 > 100 µM | RXF 631 > 100 µM | XF498 > 100 µM

O=C(CSc1nnc(-c2ccc(/N=C\c3ccc(Cl)cc3)cc2)o1)Nc1ccc([N+](=O)[O-])cc1
inactive: KM-20L2 27.2 µM | HOP-18 29 µM | SNB-78 20 µM | M19-MEL 17.1 µM | LXFL 529 15.8 µM | XF498 22.9 µM | DMS-273 16.5 µM

COc1cc(/C=C2\NC(=O)C3Cc4c(OC)c(C)c(OC)c(OC)c4C2N3C)c(OC)c(C)c1OC (stereo unspecified)
inactive: KM-20L2 > 100 µM | HOP-18 > 100 µM | SNB-78 > 100 µM | DLD-1 > 100 µM | M19-MEL > 100 µM | LXFL 529 > 100 µM | RXF 631 > 100 µM | XF498 > 100 µM | DMS-273 > 100 µM

COc1cccc(N2C(=O)/C(=C/c3ccc(N(CCC#N)CCC#N)cc3)N=C2c2cc([N+](=O)[O-])ccc2Cl)c1
inactive: KM-20L2 97.9 µM | HOP-18 > 100 µM | SNB-78 > 100 µM | DLD-1 60 µM | LXFL 529 67.9 µM | RXF 631 > 100 µM | DMS-273 38.2 µM

COC1=CC(=O)C(Br)=CC1=O
inactive: KM-20L2 33.3 µM | SNB-78 > 10 µM | DLD-1 32.3 µM | M19-MEL 17.7 µM | LXFL 529 17.2 µM | RXF 631 31.6 µM | XF498 16.9 µM | DMS-273 > 10 µM

O=C1C2=C(c3ccccc31)C(c1ccccc1)N1C(=O)CSC1=N2 (stereo unspecified)
inactive: KM-20L2 91 µM | DLD-1 > 100 µM | M19-MEL > 100 µM | LXFL 529 52 µM | RXF 631 80.9 µM | XF498 > 100 µM | DMS-273 55.8 µM

CSc1nc2c(nc(N)n2C2OC(CO)C(O)C(O)C2O)c(=O)[nH]1 (stereo unspecified)
inactive: KM-20L2 > 100 µM | HOP-18 > 100 µM | SNB-78 > 100 µM | DLD-1 > 100 µM | M19-MEL > 100 µM | LXFL 529 > 100 µM | RXF 631 > 100 µM | XF498 41.3 µM

O=c1[nH]c(=O)n(C2OC(COP(=O)(O)OP(=O)(O)OC3OC(CO)C(O)C(O)C3O)C(O)C2O)cc1F (stereo unspecified)
active: KM-20L2 0.101 µM | SNB-78 0.366 µM | DLD-1 < 0.0119 µM | M19-MEL 0.191 µM | LXFL 529 0.151 µM | RXF 631 0.0716 µM | XF498 0.277 µM
inactive: HOP-18 3.22 µM

CC(C)C1=CC23CCC4C(C)(C(=O)O)CCCC4(C)C2CC1C1C(=O)N(c2ccccc2)C(=O)C13 (stereo unspecified)
inactive: KM-20L2 39.6 µM | HOP-18 > 100 µM | DLD-1 > 100 µM | M19-MEL 57.8 µM | LXFL 529 43.9 µM | XF498 35.2 µM | DMS-273 36.1 µM

CC1=C2C(=CC(C)(C)C2O)C(=O)C(C)(O)C12CC2 (stereo unspecified)
active: KM-20L2 0.00521 µM | HOP-18 0.0337 µM | SNB-78 0.00893 µM | DLD-1 0.00665 µM | M19-MEL 0.0157 µM | LXFL 529 0.0198 µM | XF498 0.00906 µM | DMS-273 0.00489 µM

COC(=O)CCC12CCC(=O)C1[C@@H](C(=O)OC)C[C@H]2C(=O)OC (stereo partly specified)
inactive: KM-20L2 > 100 µM | HOP-18 > 100 µM | SNB-78 > 100 µM | DLD-1 > 100 µM | M19-MEL > 100 µM | LXFL 529 > 100 µM | RXF 631 > 100 µM | XF498 > 100 µM | DMS-273 > 100 µM

CC(=O)O[C@H]1C(=O)O[C@@H]2C[C@H]3C(C)=CC(=O)[C@@H](O)[C@]3(C)[C@H]3[C@@]4(O)OC[C@]32[C@@H]1[C@@H](C)[C@H]4O
active: KM-20L2 0.0977 µM | HOP-18 0.177 µM | SNB-78 0.0515 µM | DLD-1 0.03 µM | M19-MEL 0.0272 µM | XF498 0.031 µM | DMS-273 0.0264 µM

O=C(Nc1ccccc1)OCc1nc2c([nH]1)C(=O)C=CC2=O
inactive: KM-20L2 19.4 µM | HOP-18 10.5 µM | SNB-78 23.2 µM | DLD-1 > 100 µM | M19-MEL 16 µM | LXFL 529 3.1 µM | XF498 17.2 µM | DMS-273 24.2 µM
